Measurements published in article PMC11578424, “Discovery of novel 2,4-diarylaminopyrimidine hydrazone derivatives as potent anti-thyroid cancer agents capable of inhibiting FAK” (Journal of Enzyme Inhibition and Medicinal Chemistry, 2024).
Like-named read-outs stand apart in the source and are kept apart here.

Legend:
[1] = tested on: thyroid cancer cells TPC-1; assay: MTT antiproliferative assay; type: cell-based; settings: MTT assay, 48 h, average with SD (n = 3, duplicate), read-out: IC50 (μM), antiproliferative activity against thyroid cancer cells TPC-1
Protocol: Thyroid cancer cells TCP-1 were provided by Wuhan Servicebio Co., Ltd. TCP-1 cells are cultured in RPMI-1640 medium supplemented with 10% foetal bovine serum (FBS), 100 U/mL penicillin, and 0.1 mg/mL streptomycin. All cells are maintained in a humidified incubator at 37 °C with 5% CO2.
The TCP-1 cell line is seeded into a 96-well plate and incubated under conditions of 37 °C and 5% CO2. After the cells adhere, different concentrations of compounds are added and the incubation continues for 48 h under the same conditions. Subsequently, MTT reagent is added to the medium and the incubation is continued for an additional 4 h at 37 °C. After the incubation, the medium is aspirated, and 150 μL of DMSO solution is added to dissolve the purple-blue crystals by shaking. The absorbance of the solution is measured at a wavelength of 490 nm. The IC50 value of the compounds is calculated using SPSS software version 20.0.

Structure (SMILES)	IC50 ([1]; Homo sapiens, TPC1, 48 h)	melting point	IC50 [1]
CNC(=O)c1ccccc1Nc1nc(N/N=C/c2ccc(Cl)cc2)ncc1Cl [14 g, (E)-2-((5-chloro-2–(2-(4-chlorobenzylidene)hydrazineyl)pyrimidin-4-yl)amino)-N-methylbenzamide]	0.409 ± 0.093 µM	194.1 to 195.8 °C	
CNC(=O)c1ccccc1Nc1nc(N/N=C/c2cccc(F)c2)ncc1Cl [14 l, (E)-2-((5-chloro-2–(2-(3-fluorobenzylidene)hydrazineyl)pyrimidin-4-yl)amino)-N-methylbenzamide]	0.428 ± 0.009 µM	203.3 to 205.1 °C	
CNC(=O)c1ccccc1Nc1nc(N/N=C/c2cccc(C(F)(F)F)c2)ncc1Cl [14 m, (E)-2-((5-chloro-2–(2-(3-(trifluoromethyl)benzylidene)hydrazineyl)pyrimidin-4-yl)amino)-N-methylbenzamide]	0.693 ± 0.017 µM	207.1 to 209.8 °C	
CNC(=O)c1ccccc1Nc1nc(N/N=C/c2ccncc2)ncc1Cl [14 u, (E)-2-((5-chloro-2–(2-(pyridin-4-ylmethylene)hydrazineyl)pyrimidin-4-yl)amino)-N-methylbenzamide]	0.189 ± 0.005 µM	215.1 to 216.8 °C	
CNC(=O)c1ccccc1Nc1nc(N/N=C/c2cn(C)c3ccccc23)ncc1Cl [14 y]	0.425 ± 0.023 µM	217.2 to 219.1 °C	
CNC(=O)c1ccccc1Nc1nc(N/N=C/c2ccccc2)ncc1Cl [14a, (E)-2-((2–(2-benzylidenehydrazineyl)-5-chloropyrimidin-4-yl)amino)-N-methylbenzamide]	0.306 µM	199.1 to 202.1 °C	0.246 ± 0.038 µM
CNC(=O)c1ccccc1Nc1nc(N/N=C/c2ccc3[nH]ccc3c2)ncc1Cl [14aa, (E)-2-((2–(2-((1H-indol-5-yl)methylene)hydrazineyl)-5-chloropyrimidin-4-yl)amino)-N-methylbenzamide]	0.331 ± 0.012 µM	218.1 to 219.9 °C	
CNC(=O)c1ccccc1Nc1nc(N/N=C/c2ccc3cc[nH]c3c2)ncc1Cl [14ab, (E)-2-((2–(2-((1H-indol-6-yl)methylene)hydrazineyl)-5-chloropyrimidin-4-yl)amino)-N-methylbenzamide]	0.364 ± 0.015 µM	216.1 to 217.7 °C	
CNC(=O)c1ccccc1Nc1nc(N/N=C(\C)c2ccc(OC)cc2)ncc1Cl [14ac, (E)-2-((5-chloro-2–(2-(1–(4-methoxyphenyl)ethylidene)hydrazineyl)pyrimidin-4-yl)amino)-N-methylbenzamide]	0.612 ± 0.016 µM	216.7 to 217.1 °C	
CNC(=O)c1ccccc1Nc1nc(N/N=C(\C)c2ccc(F)cc2)ncc1Cl [14ad, (E)-2-((5-chloro-2–(2-(1–(4-fluorophenyl)ethylidene)hydrazineyl)pyrimidin-4-yl)amino)-N-methylbenzamide]	1.46 ± 0.066 µM	222.6 to 223.8 °C	
CNC(=O)c1ccccc1Nc1nc(N/N=C/c2ccc(C)cc2)ncc1Cl [14b, (E)-2-((5-chloro-2–(2-(4-methylbenzylidene)hydrazineyl)pyrimidin-4-yl)amino)-N-methylbenzamide]	0.296 ± 0.021 µM	207.1 to 208.1 °C	
CNC(=O)c1ccccc1Nc1nc(N/N=C/c2ccc(OC)cc2)ncc1Cl [14c, (E)-2-((5-chloro-2–(2-(4-methoxybenzylidene)hydrazineyl)pyrimidin-4-yl)amino)-N-methylbenzamide]	0.257 ± 0.004 µM	187.7 to 188.9 °C	
CNC(=O)c1ccccc1Nc1nc(N/N=C/c2ccc(OC)cc2OC)ncc1Cl [14n, (E)-2-((5-chloro-2–(2-(2,4-dimethoxybenzylidene)hydrazineyl)pyrimidin-4-yl)amino)-N-methylbenzamide]		213.1 to 214.7 °C	
CNC(=O)c1ccccc1Nc1nc(Nc2ccc(N3CCOCC3)cc2OC)ncc1Cl [TAE-226, reference compound]	1.08 ± 0.023 µM		
